Data taken from US9321756B2, “Azole compounds as PIM inhibitors” (priority 2011, dated 2016).
Read-outs that look alike come from different tables or passages of the source.

Tests used:
[1] = test system: Pim-1 stably transfected U2OS human osteogenic sarcoma line; assay: Pim cell assay U2OS (phospho-BAD normalized against total BAD), Pim-1 transfected; format: cell-based; settings: Homo sapiens, U2OS
[2] = test system: Pim-2 stably transfected U2OS human osteogenic sarcoma line; assay: Pim cell assay U2OS (phospho-BAD normalized against total BAD), Pim-2 transfected; format: cell-based; settings: Homo sapiens, read-out: U2OS Pim2_Cell_IC50
[3] = molecular target: full length recombinant Pim-1 (Homo sapiens (Human), UniProt P11309); assay: Pim enzyme assay (HTRF, phosphorylation of biotinylated-BAD (S112) peptide), Pim-1; format: biochemical; settings: read-out: Pim_1_IC50
Chain of full length recombinant Pim-1 (P11309 whole entry): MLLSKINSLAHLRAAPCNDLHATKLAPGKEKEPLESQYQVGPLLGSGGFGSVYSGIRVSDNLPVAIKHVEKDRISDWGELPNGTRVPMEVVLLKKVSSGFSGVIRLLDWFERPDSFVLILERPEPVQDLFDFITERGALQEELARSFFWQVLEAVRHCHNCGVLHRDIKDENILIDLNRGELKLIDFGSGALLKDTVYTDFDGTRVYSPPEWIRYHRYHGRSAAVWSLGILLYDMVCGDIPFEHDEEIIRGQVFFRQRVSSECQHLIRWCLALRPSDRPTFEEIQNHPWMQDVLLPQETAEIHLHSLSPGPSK

[4] = molecular target: full length recombinant Pim-2 (Homo sapiens (Human), UniProt Q9P1W9); assay: Pim enzyme assay (HTRF, phosphorylation of biotinylated-BAD (S112) peptide), Pim-2; format: biochemical; settings: read-out: Pim2_IC50
Chain of full length recombinant Pim-2 (Q9P1W9 whole entry): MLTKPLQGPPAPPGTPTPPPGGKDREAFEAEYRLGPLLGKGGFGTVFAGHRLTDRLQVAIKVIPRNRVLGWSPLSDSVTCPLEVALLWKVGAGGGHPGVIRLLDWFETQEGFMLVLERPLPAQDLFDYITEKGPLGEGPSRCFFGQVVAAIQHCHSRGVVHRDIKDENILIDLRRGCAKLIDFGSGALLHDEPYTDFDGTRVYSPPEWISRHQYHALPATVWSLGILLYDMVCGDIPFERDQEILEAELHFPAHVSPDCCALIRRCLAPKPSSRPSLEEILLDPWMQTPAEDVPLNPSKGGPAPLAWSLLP

[5] = molecular target: full length recombinant Pim-3 (Homo sapiens (Human), UniProt Q86V86); assay: Pim enzyme assay (HTRF, phosphorylation of biotinylated-BAD (S112) peptide), Pim-3; format: biochemical; settings: read-out: Pim3 IC50
Outline: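 IC50 values were fitted with a 4-parameter logistic model to percent-of-control HTRF signal (Eu anti-phospho-BAD S112 antibody/streptavidin-APC). Reactions used full-length Pim-3 and biotin-BAD (S112) peptide, ran 1 h 30 min at RT (22 °C) in Hepes pH 7.0 buffer with BSA and DTT, and were stopped by 3 mM EDTA.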

[6] = read-out: U2OS Pim1_Cell_IC50, U2OS cells, Pim-1 transfected

SMILES | IC50 [1, 6] [nM] | IC50 ([2]; U2OS cells, Pim-2 transfected) [nM] | IC50 ([3]; Pim-1 enzyme assay) [nM] | IC50 ([4]; Pim-2 enzyme assay) [nM] | IC50 ([5]; Pim-3 enzyme assay) [nM] | IC50 ([1]; read-out: U2OS Pim1_Cell_IC50) [nM] | IC50 [3] [nM] | IC50 [4] [nM] | IC50 [5] [nM] | IC50 ([2]; U2OS) [nM]
Nc1nnc(-c2ccc3[nH]cc(-c4ccc5cn[nH]c5c4)c3c2)s1 [Example 171, 5-(3-(1H-indazol-6-yl)-1H-indol-5-yl)-1,3,4-thiadiazol-2-amine] | 2660 | > 31600 | 36.6 | 58.3 | 13.9 |  |  |  |  | 
Nc1nnc(-c2ccc3[nH]cc(-c4ccc5nccnc5c4)c3c2)s1 [Example 151, 5-(3-(6-quinoxalinyl)-1H-indol-5-yl)-1,3,4-thiadiazol-2-amine] |  | > 31600 | 103 | 144 | 17.5 | 925 |  |  |  | 
COc1ccc(-c2c[nH]c3ccc(-c4nnc(N)s4)cc23)nc1OC [Example 168, 5-(3-(5,6-dimethoxy-2-pyridinyl)-1H-indol-5-yl)-1,3,4-thiadiazol-2-amine] |  | > 3160 | 23.2 | 44.1 | 6.34 | 111 |  |  |  | 
Cn1cc(-c2cncc(-c3c[nH]c4ccc(-c5nnc(N)o5)cc34)n2)cn1 [Example 121, 5-(3-(6-(1-methyl-1H-pyrazol-4-yl)-2-pyrazinyl)-1H-indol-5-yl)-1,3,4-oxadiazol-2-amine] |  | > 31600 | 19 | 34.6 | 5.54 | 3140 |  |  |  | 
CCN(CC)c1cncc(-c2c[nH]c3ccc(-c4nnc(N)s4)cc23)n1 [Example 154, 6-(5-(5-amino-1,3,4-thiadiazol-2-yl)-1H-indol-3-yl)-N,N-diethyl-2-pyrazinamine] | 43.4 | 2300 | 2 | 20 | 1.45 |  |  |  |  | 
Nc1nnc(-c2ccc3[nH]cc(-c4cccc(-c5ccc(Cl)cc5)n4)c3c2)s1 [Example 31, 5-(3-(6-(4-chlorophenyl)pyridin-2-yl)-1H-indol-5-yl)-1,3,4-thiadiazol-2-amine] | 1090 | 28300 |  |  |  |  | 37.4 | 75.5 | 13.6 | 
CNc1nnc(-c2ccc3[nH]cc(-c4ccnc(N5CCOCC5)n4)c3c2)s1 [Example 129, N-methyl-5-(3-(2-(4-morpholinyl)-4-pyrimidinyl)-1H-indol-5-yl)-1,3,4-thiadiazol-2-amine] | 982 | > 31600 | 31.3 | 82.4 | 12.3 |  |  |  |  | 
CC(C)Nc1ccnc(-c2c[nH]c3ccc(-c4nnc(N)o4)cc23)n1 [Example 103, 2-(5-(5-amino-1,3,4-oxadiazol-2-yl)-1H-indol-3-yl)-N-(1-methylethyl)-4-pyrimidinamine] |  | 1220 | 6.9 | 2.24 | 1.67 | 739 |  |  |  | 
CC(C)Nc1nnc(-c2ccc3[nH]cc(-c4nccc(C5CC5)n4)c3c2)o1 [Example 264, 5-(3-(4-cyclopropyl-2-pyrimidinyl)-1H-indol-5-yl)-N-(1-methylethyl)-1,3,4-oxadiazol-2-amine] |  | 238 | 1.4 | 1.39 | 0.435 | 25.8 |  |  |  | 
Nc1nnc(-c2ccc3[nH]cc(-c4nccc(C5CC5)n4)c3c2)o1 [Example 94, 5-(3-(4-cyclopropyl-2-pyrimidinyl)-1H-indol-5-yl)-1,3,4-oxadiazol-2-amine] | 75.2 | 280 | 5.19 | 0.984 | 0.998 |  |  |  |  | 
Nc1nnc(-c2ccc3[nH]cc(-c4cccc(NCC5CC5)n4)c3c2)s1 [Example 204, 6-(5-(5-amino-1,3,4-thiadiazol-2-yl)-1H-indol-3-yl)-N-(cyclopropylmethyl)-2-pyridinamine] |  | 7720 | 82.9 | 145 | 18.2 | 466 |  |  |  | 
Nc1nnc(-c2ccc3[nH]cc(-c4cccc(N5CCCC5=O)n4)c3c2)s1 [Example 166, 1-(6-(5-(5-amino-1,3,4-thiadiazol-2-yl)-1H-indol-3-yl)-2-pyridinyl)-2-pyrrolidinone] |  | > 31600 | 18.2 | 38.3 | 5.33 | > 31600 |  |  |  | 
CCOc1cccc(-c2c[nH]c3ccc(-c4nnc(NC)s4)cc23)n1 [Example 230, 5-(3-(6-ethoxy-2-pyridinyl)-1H-indol-5-yl)-N-methyl-1,3,4-thiadiazol-2-amine] |  | > 31600 | 30.9 | 63.1 | 7.13 | 912 |  |  |  | 
Nc1nnc(-c2ccc3[nH]cc(-c4cncc(N5CCOCC5)n4)c3c2)s1 [Example 156, 5-(3-(6-(4-morpholinyl)-2-pyrazinyl)-1H-indol-5-yl)-1,3,4-thiadiazol-2-amine] | 163 | 1900 | 5.59 | 12.3 | 4.38 |  |  |  |  | 
CC(C)Oc1cccc(-c2c[nH]c3ccc(-c4nnco4)cc23)n1 [Example 244, 3-(6-(1-methylethoxy)-2-pyridinyl)-5-(1,3,4-oxadiazol-2-yl)-1H-indole] |  | 12200 | 24.8 | 85.4 | 15.1 | 310 |  |  |  | 
CNc1nnc(-c2ccc3[nH]cc(-c4cccc(N5CCOCC5)n4)c3c2)s1 [Example 214, N-methyl-5-(3-(6-(4-morpholinyl)-2-pyridinyl)-1H-indol-5-yl)-1,3,4-thiadiazol-2-amine] | 587 | 15200 | 25.7 | 91.9 | 10.1 |  |  |  |  | 
CNc1nnc(-c2ccc3[nH]cc(-c4ccccc4F)c3c2)s1 [Example 235, 5-(3-(2-fluorophenyl)-1H-indol-5-yl)-N-methyl-1,3,4-thiadiazol-2-amine] |  | > 31600 | 228 | 782 | 62.8 | 5390 |  |  |  | 
CC1CCN(c2cncc(-c3c[nH]c4ccc(-c5nnc(N)s5)cc34)n2)CC1 [Example 162, 5-(3-(6-(4-methyl-1-piperidinyl)-2-pyrazinyl)-1H-indol-5-yl)-1,3,4-thiadiazol-2-amine] |  | 5680 | 12.7 | 49.4 | 8.54 | 214 |  |  |  | 
Nc1nnc(-c2ccc3[nH]cc(-c4nccc(N5CCC[C@@H](O)C5)n4)c3c2)o1 (stereo in doubt) [Example 104, 1-(2-(5-(5-amino-1,3,4-oxadiazol-2-yl)-1H-indol-3-yl)-4-pyrimidinyl)-3-piperidinol] |  | 15200 | 11.4 | 7.73 | 5.1 | 2130 |  |  |  | 
CC(C)Oc1cccc(-c2c[nH]c3ccc(-c4nnc(N5CC[C@@H](N)C5)s4)cc23)n1 [Example 33, (R)-1-(5-(3-(6-Isopropoxypyridin-2-yl)-1H-indol-5-yl)-1,3,4-thiadiazol-2-yl)pyrrolidin-3-amine 2,2,2-trifluoroacetate] | 328 |  | 8.84 |  |  |  |  | 16.7 | 1.32 | 19500
c1cc2[nH]cc(-c3cncc(C4CC4)n3)c2cc1-c1nnc(NC2CC2)o1 [Example 49, N-cyclopropyl-5-(3-(6-cyclopropylpyrazin-2-yl)-1H-indol-5-yl)-1,3,4-oxadiazol-2-amine] |  | 2680 | 3.43 | 7.64 | 1.82 | 83.4 |  |  |  | 
Nc1nnc(-c2ccc3[nH]cc(-c4cncc(-c5ccccc5F)n4)c3c2)o1 [Example 116, 5-(3-(6-(2-fluorophenyl)-2-pyrazinyl)-1H-indol-5-yl)-1,3,4-oxadiazol-2-amine] | 224 | > 31600 | 15.2 | 19.6 | 7.81 |  |  |  |  | 
Nc1nnc(-c2ccc3[nH]cc(-c4cccc(-c5ccccc5)n4)c3c2)s1 [Example 130, 5-(3-(6-phenyl-2-pyridinyl)-1H-indol-5-yl)-1,3,4-thiadiazol-2-amine] |  | > 31600 | 39.6 | 39 | 20.5 | 7880 |  |  |  | 
Nc1nnc(-c2ccc3[nH]cc(-c4cccc(-n5cccn5)n4)c3c2)o1 [Example 77, 5-(3-(6-(1H-pyrazol-1-yl)-2-pyridinyl)-1H-indol-5-yl)-1,3,4-oxadiazol-2-amine] | 112 | 1890 | 11.9 | 13.7 | 4.13 |  |  |  |  | 
CS(=O)(=O)c1nnc(-c2ccc3[nH]cc(-c4cccc(N5CCOCC5)n4)c3c2)s1 [Example 215, 5-(5-(methylsulfonyl)-1,3,4-thiadiazol-2-yl)-3-(6-(4-morpholinyl)-2-pyridinyl)-1H-indole] |  | > 31600 | 208 | 8780 | 168 | > 31600 |  |  |  | 
Nc1nnc(-c2ccc3[nH]cc(-c4cncc(-c5cccc(Cl)c5)n4)c3c2)o1 [Example 120, 5-(3-(6-(3-chlorophenyl)-2-pyrazinyl)-1H-indol-5-yl)-1,3,4-oxadiazol-2-amine] |  | > 31600 | 9.41 | 22.9 | 4.23 | 242 |  |  |  | 
C[C@H]1CCCN(c2ccnc(-c3c[nH]c4ccc(-c5nnc(N)o5)cc34)n2)C1 (stereo in doubt) [Example 105, 5-(3-(4-(3-methyl-1-piperidinyl)-2-pyrimidinyl)-1H-indol-5-yl)-1,3,4-oxadiazol-2-amine] |  | 920 | 5.5 | 4.81 | 1.78 | 104 |  |  |  | 
